# Reference: patent US20260125374A1, “PI3K-ALPHA INHIBITORS AND METHODS OF MAKING AND USING THE SAME” (Relay Therapeutics, Inc., priority 2021, published 2026)
# Marks after values point to notes of the source that are not given here.
# Test: Polymorph screening (equilibration, anti-solvent, slow evaporation, slow cooling, temperature cycling, heating-cooling; XRPD and SFC)
# Assay type: physicochemical
# Method: This polymorph screening program of compound I-1 free form was performed with two batches of the pure enantiomer. Both batches are crystalline and is assigned as Form A. The polymorphic behaviors of the enantiomer were investigated by equilibration at 25° C. and 50° C., equilibration under a temperature cycle, crystallization from hot saturated solutions by slow cooling, slow evaporation, precipitation by addition of anti-solvent, and DSC heating-cooling cycle experiments. Relative stability of identified polymorphs was investigated by competitive slurry experiments.
# About 50 mg of I-1 Form A was weighed into a 2 mL glass vial and equilibrated in suitable amount of solvents (pretreated by molecular sieves) at 25° C. for 2 weeks with a stirring plate and with protection from light. Obtained suspensions were filtered with 0.45 μm nylon membrane and the solid parts (wet cake) were investigated by XRPD. When differences were observed, additional investigations were performed (e.g. DSC, TGA, ^1H-NMR, SFC).
# About 50 mg of I-1 Form A was weighed into 2 mL glass vials and equilibrated in suitable amount of solvents (pretreated by molecular sieves) at 50° C. for 10 days with a stirring plate and with protection from light. Obtained suspensions were filtered with 0.45 μm nylon membrane and the solid parts (wet cake) were investigated by XRPD. When differences were observed, additional investigation was performed (e.g. DSC, TGA, ^1H-NMR, SFC).
# I-1 Form A was dissolved in a good solvent. […] The solvents used were pretreated by molecular sieve. Precipitates were collected by filtration. The solid part (wet cake) was investigated by XRPD. […] When differences were observed, additional investigations were performed (e.g. DSC, TGA, ^1H-NMR, SFC).
# Based on approximate solubility results, I-1 Form A was dissolved in suitable amount of solvents (pretreated by molecular sieves). Obtained solutions were filtered by 0.45 μm nylon filter. […] Solid residues were examined for their polymorphic form. When differences were observed, additional investigations were performed (e.g. DSC, TGA, ^1H-NMR, SFC).
# Approximate 50 mg of batch I-1 Form A were dissolved in the minimal amount of selected solvents (without pretreatment by molecular sieves) at 50° C. Obtained solutions were filtered by 0.45 μm nylon filter. […] Precipitates were collected by filtration. The solid parts (wet cake) were investigated by XRPD. When differences were observed, additional investigations were performed (e.g. DSC, TGA, ^1H-NMR, SFC). When no precipitation was obtained or only a few solids were obtained, the solutions were placed at 5° C. for crystallization.
# About 50 mg of I-1 Form A was equilibrated in different solvents (pretreated by molecular sieves) under a temperature cycle between 5° C. to 50° C. at a heating/cooling rate of 0.2° C./min for 10 cycles and with protection from light. After 10 cycles, precipitates were collected at 5° C. by filtration. The solid parts (wet cake) were investigated by XRPD. When differences were observed, additional investigations were performed (e.g. DSC, TGA, 1H-NMR, SFC).
# Polymorphic behavior of I-1 Form A was investigated by two different heating-cooling cycles of DSC. Cycle 1:30° C. to 280° C. at 10° C./min; 280° C. to −20° C. at 20° C./min; reheat to 300° C. at 10° C./min. Cycle 2:30° C. to 280° C. at 10° C./min; 280° C. to-20° C. at 2° C./min; reheat to 300° C. at 10° C./min.
smiles,measurement,setting,value
"N#Cc1c(-c2cc(NC(=O)c3cc(F)cc(C(F)(F)F)c3)c3c(c2)C(=O)N[C@H]3c2cc(F)ccc2Cl)ccc2ncnn12 [Compound I-1, (R)-N-(3-(2-chloro-5-fluorophenyl)-6-(5-cyano-[1,2,4]triazolo[1,5-a]pyridin-6-yl)-1-oxoisoindolin-4-yl)-3-fluoro-5-(trifluoromethyl)benzamide]",XRPD,equilibration at 50° C. for 10 days in Ethyl acetate,I-1 Form A
same,XRPD,equilibration at 50° C. for 10 days in Isopropyl acetate,I-1 Form A
same,XRPD,"equilibration at 50° C. for 10 days in MeOH/water(55:45, v/v) a.w. 0.7",I-1 Form A
same,XRPD,equilibration at 50° C. for 10 days in Methanol,III-1 Form A
same,ee %(SFC),"equilibration at 50° C. for 10 days in Methanol, SFC immediately after preparation",ee % (SFC): 48.4%*
same,XRPD,equilibration at 50° C. for 10 days in Methyl ethyl ketone,I-1 Form A
same,XRPD,"equilibration at 50° C. for 10 days in THF/water(85:15, v/v) a.w. 0.9",I-1 Form A
same,XRPD,equilibration at 50° C. for 10 days in Water,I-1 Form A
same,XRPD,equilibration at 50° C. for 10 days in t-Butyl methyl ether,I-1 Form A
same,ee %(SFC),"equilibration at 50° C. in 1,4-Dioxane, added I-1 Form B seeds and stirred for 4 days",ee %(SFC): 80.1%*
same,ee %(SFC),"equilibration at 50° C. in 1,4-Dioxane, with molecular sieve and stirred for 6 days",ee %(SFC): 88.26%*
same,ee %(SFC),"equilibration at 50° C. in 1,4-Dioxane, without molecular sieve and stirred for 6 days",ee %(SFC): 81.26%*
same,ee %(SFC),"equilibration at 50° C. in THF, added I-1 Form B seeds and stirred for 4 days",ee %(SFC): 82.5%*
same,ee %(SFC),"equilibration in ACN/water(80:20, v/v), 25° C., pH 7.27, III-1 Form A seeds, 3 days",ee %(SFC): 90.9%*
same,ee %(SFC),"equilibration in ACN/water(80:20, v/v), 25° C., pH 7.27, III-1 Form A seeds, 8 days",ee %(SFC): 89.3%*
same,ee %(SFC),"equilibration in ACN/water(80:20, v/v), 50° C., pH 4.48, 3 days",ee %(SFC): 89.6%*
same,ee %(SFC),"equilibration in ACN/water(80:20, v/v), 50° C., pH 4.48, 5 days",ee %(SFC): 88.9%*
same,ee %(SFC),"equilibration in ACN/water(80:20, v/v), 50° C., pH 6.79, 3 days",ee %(SFC): 67.4%*
same,ee %(SFC),"equilibration in EtOH/water(50:50, v/v), 50° C., pH 6.82, 3 days",ee %(SFC): 91.6%*
same,ee %(SFC),"equilibration in Methanol, 50° C., pH 6.21, 3 days",ee %(SFC): 87.9%*
same,ee %(SFC),"slow cooling 50° C. to 5° C. from 1,4-Dioxane, SFC immediately after preparation",ee %(SFC): −0.2%*
same,Comments (outcome),slow cooling 50° C. to 5° C. from ACN,clear solution
same,Comments (outcome),slow cooling 50° C. to 5° C. from Acetone,clear solution
same,Comments (outcome),slow cooling 50° C. to 5° C. from Benzyl alcohol,clear solution
same,Comments (outcome),slow cooling 50° C. to 5° C. from MEK,clear solution
same,Comments (outcome),slow cooling 50° C. to 5° C. from MeOH,clear solution
same,Comments (outcome),slow cooling 50° C. to 5° C. from THF,clear solution
same,XRPD,"slow evaporation at room temperature from 1,4-Dioxane",Amorphous form
same,XRPD,slow evaporation at room temperature from ACN,Amorphous form
same,XRPD,slow evaporation at room temperature from Acetone,Amorphous form
same,XRPD,slow evaporation at room temperature from MeOH,III-1D
same,XRPD,slow evaporation at room temperature from THF,Amorphous form
same,ee %(SFC),slow evaporation from MeOH (not pretreated by molecular sieves) at 25° C. for 12 days,ee %(SFC): 98.0%*
same,ee %(SFC),"slow evaporation from MeOH/DCM(1:1, v/v), added I-1 Form D seeds",ee %(SFC): 88.9%*
same,ee %(SFC),"slow evaporation from MeOH, SFC immediately after preparation",ee % (SFC): 68.6%*
same,Comments (outcome),"temperature cycling 5° C. to 50° C. in 1,4-Dioxane, target concentration: 250 mg/mL","Clear solution, target concentration: 250 mg/mL"
same,Comments (outcome),"temperature cycling 5° C. to 50° C. in THF/water(85:15, v/v) a.w. 0.9, target concentration: 250 mg/mL","Clear solution, target concentration: 250 mg/mL"
same,Comments (outcome),"temperature cycling 5° C. to 50° C. in Tetrahydrofuran, target concentration: 250 mg/mL","Clear solution, target concentration: 250 mg/mL"
same,XRPD,"temperature cycling 5° C. to 50° C., 10 cycles, in 2-MeTHF",I-1 Form A
same,XRPD,"temperature cycling 5° C. to 50° C., 10 cycles, in ACN/water(80:20, v/v) a.w. 0.9",I-1 Form A
same,XRPD,"temperature cycling 5° C. to 50° C., 10 cycles, in Acetone",I-1 Form A
same,XRPD,"temperature cycling 5° C. to 50° C., 10 cycles, in Acetone/water(60:40, v/v) a.w. 0.8",I-1 Form A
same,XRPD,"temperature cycling 5° C. to 50° C., 10 cycles, in Acetonitrile",I-1 Form A
same,XRPD,"temperature cycling 5° C. to 50° C., 10 cycles, in Benzyl alcohol",I-1 Form A
same,XRPD,"temperature cycling 5° C. to 50° C., 10 cycles, in EtOH/water(50:50, v/v) a.w. 0.9",I-1 Form A
same,XRPD,"temperature cycling 5° C. to 50° C., 10 cycles, in Ethanol",I-1 Form A
same,XRPD,"temperature cycling 5° C. to 50° C., 10 cycles, in Ethyl acetate",I-1 Form A
same,XRPD,"temperature cycling 5° C. to 50° C., 10 cycles, in MeOH/water(55:45, v/v) a.w. 0.7",I-1 Form A
same,ee %(SFC),"temperature cycling 5° C. to 50° C., 10 cycles, in MeOH/water(55:45, v/v), SFC immediately after preparation",ee %(SFC): 100.0%*
same,ee %(SFC),"temperature cycling 5° C. to 50° C., 10 cycles, in Methanol, SFC immediately after preparation",ee %(SFC): 89.4%*
same,XRPD,"temperature cycling 5° C. to 50° C., 10 cycles, in Methyl ethyl ketone",I-1 Form A
